We go through two molecules from patent US8389551B2, “Optical enantiomers of phenyramidol and process for chiral synthesis” (Fermenta Biotech (UK) Limited, priority 2006, dated 2013).

Format in all cases: in vivo
Assay [1] concerns swiss albino mice. The assay is described as follows: Skeletal muscle relaxant activity, Rota rod, second experiment (racemic, S isomer, R isomer). The note with it: confirmed by a Rota-rod method. On the procedure: The evaluation of skeletal muscle relaxant activity of the formulations containing phenyramidol racemic, dextro and laevo isomers of oxalate salts in swiss albino mice were carried out using Rota rod apparatus. Each animal was trained only once per day for 5 days. […] Mouse was placed on rota rod only when it achieved the speed of 25 rpm. The ‘fall off time’ in seconds was noted down when the mouse falls from rotating rod. Endurance time was measured up to 120 seconds. The skeletal muscle relaxant activity was assessed using 0 hr, 1 hr, 2 hrs, 4 hrs and 6 hrs time points after the dose administration. A total of 100 mice were selected and randomly distributed into ten main groups with 10 animals per group.
Two efficacy variables were assessed during the experiment: 1. Percent animal falling from the rod was noted; 2. Endurance Time (ET): The time taken for a mouse to fall from the rod was taken as endurance time. The endurance time was taken up to 120 sec and treatment group ET was compared to normal control. These efficacy variables were assessed at five time points 0 hr, 1 hr, 2 hr, 4 hr, and 6 hr for each and every animal.
In another experiment, the studies have been extended to confirm the isomer which is having more skeletal muscle relaxant activity. Control group (R1) receiving only vehicle (water for injection) served as a placebo in the study. […]
(In general: Falling from the rotarod earlier than controls is read as motor impairment.)

In assay [2] the test system is swiss albino mice. The assay is described as follows: Analgesic activity, acetic acid induced writhing method. On the procedure:
The objective of the study was to evaluate the analgesic activity of the tested formulations of the compounds of the present invention. The test was conducted in Swiss albino mice using acetic acid induced writhing method. A total of 78 pre-screened mice (showing writhing response within 10 minutes*) were divided into 6 groups of 13 animals (6 males+7 females) each. The animals showing no writhing response within 10 mins were excluded. Diclofenac and pentazocine were used as positive controls. The formulations were given orally to the different groups of animals and the number of writhes counted for a period of 15 minutes, after the onset of writhes. If the onset of writhes occurred 30 after 10 minutes the number of writhes was recorded as V. The time of onset of writhes was recorded for each animal.
The control group received 1% gum acacia. The Groups 2, 3, and 4 received the formulations viz: Phen 2; Phen 3 and Phen 4 respectively. Diclofenac and pentazocine were used as positive control and given to groups 5 and 6 respectively. Diclofenac, a potent analgesic & anti-inflammatory agent; and 5 pentazocine an opoid analgesic were selected for comparative evaluation of test formulations. Both these drugs were administered to different groups of animals at the dose of 2 mg/kg. The group 1 (Phen 1) served as—Ve Control group in the study. Phen 5 (Diclofenac—2 mg/kg) and Positive Control: Phen 6 (Pentazocine 2 mg/kg) served as positive controls.
Human daily dose of 2400 mg (800 mg×3 times) was extrapolated to mice for Phen3 and human daily dose of 1200 mg (400 mg×3 times) was extrapolated to mice for Phen2 and Phen 4. The numbers of writhes observed are given below in Table 4 for each formulation.
Further, the evaluation of analgesic activity was carried out using variable dosage forms with different groups. A total of 100 animals (50 males+50 females) were selected randomly and distributed into ten main groups with 10 animals per group (5 M+5 F). Human daily dose of 2400 mg (800 mg×3 times) was extrapolated to mice for Phen 3 (Phenyramidol Racemic (Hydrochloride) and human daily dose of 1200 mg (400 mg×3 times), 1800 mg (400 mg×4.5 times), 2000 mg (400 mg×5 times) & 2400 mg (400 mg×6 times) was extrapolated to mice for Phen2 and Phen4 groups.
The control group 1 received 1% gum acacia and served as negative control group. Groups 2, 3, 4 & 5 received the formulation Phen2. Groups 6, 7, 8 & 9 received the formulation Phen 4 (Isomer 2) & Group 10 received the formulation Phen 3 (Racemic).
Further, one more experiment was done with phenyramidol hydrochloride to evaluate the analgesic activity at lesser dosage levels using acetic acid induced method. A total of 50 animals (25 males+25 females) were selected and randomly distributed into five main groups with 10 animals per group (5 M+5 F). 5 Human daily dose of 600 mg (400×1.5 times) & 1200 mg (800 mg×1.5 times) was extrapolated to mice for Phen 3 (Racemic) and human daily dose of 600 mg (400 mg×1.5 times) was extrapolated to mice for (−) Phenyramidol Hydrochloride & (+) Phenyramidol Hydrochloride and the results are discussed in Table 6.

Assay [3] has as its system swiss albino mice. The assay is described as follows: Skeletal muscle relaxant activity, Rota rod apparatus, first experiment (oxalate salts, dose groups). The note with it: at the doses mentioned.
Procedure: Control group receiving only vehicle served as a placebo in the study.
The test formulations were administered by oral route through gavage tube.(p.o.).
Two efficacy variables were assessed during the experiment: 1. Percent animal falling from the rod was noted; 2. Endurance Time (ET): The time taken for a mouse to fall from the rod was taken as endurance time. […] These efficacy variables were assessed at five time points 0 hr, 1 hr, 2 hr, 4 hr, and 6 hr for each and every animal.
For a further assay, the system named is mice. The assay is described as follows: Central analgesic activity, tail flick analgesiometer. The note with it: mouse, in vivo.
The test system of another assay is rats. The assay is described as follows: Anti-arthritic activity, thickness of joint of right paw after injection of formalin. On the procedure: The anti-arthritic activity was assessed using following time points after the injection of formalin 2 hrs, 4 hrs, 8 hrs, 24 hrs, 48 hrs and 72 hrs. The control group (group 1) received 1% gum acacia. The Groups 2, 3, and 4 received the formulations viz: Phen 2, Phen 3 and Phen 4 respectively. Diclofenac was used as positive control and given to group 5. Human daily dose of 2400 mg (800 mg×3 times) was extrapolated to rats for 5 (racemate) Phen 3 and human daily dose of 1200 mg (400 mg×3 times) was extrapolated to rats for (isomer 1) Phen 2 and (isomer 2) Phen 4. Diclofenac sodium 2 mg/Kg was used as reference product.
Initial or 0 hr thickness of the joint of right paw of each animal was recorded. The thickness of the joint was measured using Vernier calipers at different time intervals after the injection of formalin. These efficacy variables were assessed at six time points 2 hrs, 4 hrs, 8 hrs, 24 hrs, 48 hrs and 72 hrs for each and every animal.

The subject of the next assay is Wistar rats. The assay is described as follows: Anti-inflammatory activity, carrageenin induced paw edema (plethysmometer). The method, then: Further, the investigations were carried out to determine the anti-inflammatory activities of the molecule of the present invention. Wistar rats weighing between 160-210 gm were divided into 6 groups of 10 animals each. Group I served as control (Placebo) and receive CMC and Group II & III received anti-inflammatory control (positive control) (Diclofenac & Indomethacin respectively). Group IV to VI were treated orally with test formulations. After 15 min. of drug administration, inflammation was induced by injecting 0.1 ml of freshly prepared 1% carrageenin (in normal saline) into the left hind paw of the rat. The paw volume of the […] was measured by measuring the displace fluid in other hand of plethysmometer.
Indomethacin (15 mg/kg and declofenac (10 mg/kg) was used as reference product. Percent increased in rat paw edema was measured and compare to normal control at each time intervals.
The antiinflammatory activity was assessed plethysmographically using following time points after the administration of carrageenan, 1 hr, 2 hrs, 3 hrs and 5 hrs.

Marks after values point to notes of the source that are not given here.

For `Cl.O[C@H](CNc1ccccn1)c1ccccc1` [(+) Phenyramidol Hydrochloride, (S)-Phenyramidol Hydrochloride Salt], the “skeletal muscle relaxant activity (summary statement)” value with swiss albino mice [1] is “enhanced skeletal muscle relaxant activity”. In addition, in the assay on swiss albino mice [2] (Table 6, dose 600 mg (human daily dose extrapolated to mice), mean ± SD, n = 10), the “Average no. of writhes” value is recorded as 5.00 ± 4.64*. Also, the “analgesic activity by decrease in the number of writhes induced by acetic acid” value in the assay on swiss albino mice [2] (experiment of Table 6, lesser dosage levels) was “significant analgesic activity”.

Regarding `O=C(O)C(=O)O.O[C@H](CNc1ccccn1)c1ccccc1` [Phen 2, (S)-Phenyramidol Oxalate], the “skeletal muscle relaxant activity (conclusion)” value in the assay on swiss albino mice [3] was “exhibit skeletal muscle relaxant activity”. For the same molecule, the “Average no. of writhes” value is listed as 13.08 ± 9.93* in the assay on swiss albino mice [2] (Table 4, oral, writhes counted 15 minutes, Phen3 human daily dose 2400 mg, Phen2 and Phen 4 1200 mg extrapolated to mice, Diclofenac and Pentazocine 2 mg/kg); 11.90 ± 8.43* in the assay with swiss albino mice [2] (Table 5, dose 1200 mg (human daily dose extrapolated to mice), mean ± SD, n = 10); 8.80 ± 6.78* in the assay on swiss albino mice [2] (Table 5, dose 1800 mg (human daily dose extrapolated to mice), mean ± SD, n = 10); 8.20 ± 7.30* in the assay on swiss albino mice [2] (Table 5, dose 2000 mg (human daily dose extrapolated to mice), mean ± SD, n = 10); 6.00 ± 5.66* in the assay on swiss albino mice [2] (Table 5, dose 2400 mg (human daily dose extrapolated to mice), mean ± SD, n = 10). The “analgesic activity by decrease in the number of writhes induced by acetic acid” value in the assay on swiss albino mice [2] (experiment of Table 4) and in the assay with swiss albino mice [2] (experiment of Table 5 (variable doses)) was “significant analgesic activity” throughout. The “Tail Flick Reaction Time (Sec.) 1 hr.” value in the assay on mice amounted to 4.31 ± 1.754 s. Besides, the “Tail Flick Reaction Time (Sec.) 4 hr.” value in the assay with mice is 2.46 ± 0.591 s. For the same molecule, the “Thickness of Joint (in cm) 0 hr” value in the assay with rats (0 hr (initial), Phen 3 2400 mg, Phen 2 and Phen 4 1200 mg human daily dose extrapolated to rats, Diclofenac sodium 2 mg/Kg) is on record as 0.45 ± 0.06 cm. In addition, in the assay with rats (2 hr after formalin, Phen 3 2400 mg, Phen 2 and Phen 4 1200 mg human daily dose extrapolated to rats, Diclofenac sodium 2 mg/Kg), the “Thickness of Joint (in cm) 2 hr” value was 0.59 ± 0.03 cm. The “Thickness of Joint (in cm) 4 hr” value in the assay with rats (4 hr after formalin, doses as E38) turned out to be 0.56 ± 0.04 cm. Besides, the “Thickness of Joint (in cm) 8 hr” value with rats (8 hr after formalin, doses as E38) was determined as 0.60 ± 0.06 cm. The “Thickness of Joint (in cm) 24 hr” value with rats (24 hr after formalin, doses as E38) turned out to be 0.54 ± 0.05 cm. Also, the “Thickness of Joint (in cm) 48 hr” value in the assay on rats (48 hr after formalin, doses as E38) is reported as 0.52 ± 0.04 cm. For the same molecule, the “Thickness of Joint (in cm) 72 hr” value in the assay with rats (72 hr after formalin, doses as E38) turned out to be 0.50 ± 0.03 cm. Moreover, the “% Increase in Paw volume 1 HR” value with Wistar rats (1 HR after carrageenan, oral, racemate 2400 mg, isomers 1200 mg human daily dose extrapolated to rats, Indomethacin 15 mg/kg, diclofenac 10 mg/kg) is given as 25.82 ± 11.67%. For the same molecule, the “% Increase in Paw volume 2 HR” value in the assay on Wistar rats (2 HR after carrageenan, doses as E46) is on record as 40.57 ± 10.07%. Moreover, in the assay with Wistar rats (3 HR after carrageenan, doses as E46), the “% Increase in Paw volume 3 HR” value is reported as 66.59 ± 20.88%. In the assay on Wistar rats (5 HR after carrageenan, doses as E46), the “% Increase in Paw volume 5 HR” value is recorded as 48.71 ± 15.16%.
